Source: US9676782B2, “Substituted pyrazolo[1,5-a]pyrazines as negative allosteric modulators of metabotropic glutamate receptor 3” (Vanderbilt University, priority 2014, dated 2017)
Like-named read-outs stand apart in the source and are kept apart here.

Tests used:
rat mGlu3 = rat mGlu3 (Rattus norvegicus (Rat), UniProt P31422); experiment: mGlu3 Ca2+ flux assay; format: cell-based; conditions: for remaining activity at 30 µM: amplitude of response at 30 μM test compound as % of maximal response to glutamate, read-out: rat mGlu3 Glu max (%); for IC50: read-out: rat mGlu3 IC50
Chain of rat mGlu3 (P31422 23-879): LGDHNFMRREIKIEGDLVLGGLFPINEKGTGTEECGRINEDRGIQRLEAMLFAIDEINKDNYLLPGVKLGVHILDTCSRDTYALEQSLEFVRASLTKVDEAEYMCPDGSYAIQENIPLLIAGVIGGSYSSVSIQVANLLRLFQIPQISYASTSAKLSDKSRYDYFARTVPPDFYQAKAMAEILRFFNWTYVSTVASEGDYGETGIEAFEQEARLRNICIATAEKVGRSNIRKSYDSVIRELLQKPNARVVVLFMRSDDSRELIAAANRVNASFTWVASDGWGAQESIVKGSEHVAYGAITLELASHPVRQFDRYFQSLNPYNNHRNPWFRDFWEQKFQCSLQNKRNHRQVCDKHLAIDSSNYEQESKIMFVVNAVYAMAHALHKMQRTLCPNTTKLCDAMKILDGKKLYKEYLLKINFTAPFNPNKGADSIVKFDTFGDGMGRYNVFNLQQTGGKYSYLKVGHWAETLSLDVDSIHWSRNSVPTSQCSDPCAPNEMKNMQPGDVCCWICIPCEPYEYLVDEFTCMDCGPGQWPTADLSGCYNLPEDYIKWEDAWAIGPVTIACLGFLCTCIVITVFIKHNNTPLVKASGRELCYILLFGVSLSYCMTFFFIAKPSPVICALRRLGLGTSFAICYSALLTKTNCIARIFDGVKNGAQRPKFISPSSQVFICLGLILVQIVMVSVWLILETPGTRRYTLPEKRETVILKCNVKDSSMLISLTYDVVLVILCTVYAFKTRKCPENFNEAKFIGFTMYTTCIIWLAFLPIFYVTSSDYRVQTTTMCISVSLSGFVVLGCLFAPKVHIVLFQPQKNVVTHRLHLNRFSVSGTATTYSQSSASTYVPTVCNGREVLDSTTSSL
Procedure: (§1) The cells were grown overnight at 37° C. in the presence of 5% CO2. […] Dye was removed, 20 μL of assay buffer was added, and the plate was incubated for 10 minutes at room temperature. Ca^2+ flux was measured using the Functional Drug Screening System (FDSS7000, Hamamatsu, Japan). […] All test compounds were dissolved and diluted to a concentration of 10 mM in 100% DMSO. […] Calcium fluorescence measures were recorded as fold over basal fluorescence; raw data was then normalized to the maximal response to glutamate. […] The raw data file containing all time points was used as the data source in the analysis template. This was saved by the FDSS as a tab-delimited text file. Data were normalized using a static ratio function (F/F0) for each measurement of the total 360 values per well divided by each well's initial value. […] This is sufficient time to capture the peak amplitude of the cellular calcium response. […] EC50 values for test compounds were generated by fitting the normalized values versus the log of the test compound concentration (in mol/L) using a 4 parameter logistic equation where none of the parameters were fixed. Each of the three values collected at each concentration of test compound were weighted evenly.

rat mGlu5 = rat mGlu5 (Rattus norvegicus (Rat), UniProt P31424); experiment: mGlu5 Ca2+ flux assay; format: cell-based; conditions: for Fold selectivity (mGlu3 vs. mGlu5): ratio of rat mGlu5 EC50 or IC50 to rat mGlu3 IC50; for EC50: read-out: rat mGlu5 EC50 or IC50; for Emax at 30 µM: PAM, amplitude of response at 30 μM test compound as % of maximal response to glutamate, read-out: rat mGlu5 Glu max (%)
Chain of rat mGlu5 (P31424 21-1203): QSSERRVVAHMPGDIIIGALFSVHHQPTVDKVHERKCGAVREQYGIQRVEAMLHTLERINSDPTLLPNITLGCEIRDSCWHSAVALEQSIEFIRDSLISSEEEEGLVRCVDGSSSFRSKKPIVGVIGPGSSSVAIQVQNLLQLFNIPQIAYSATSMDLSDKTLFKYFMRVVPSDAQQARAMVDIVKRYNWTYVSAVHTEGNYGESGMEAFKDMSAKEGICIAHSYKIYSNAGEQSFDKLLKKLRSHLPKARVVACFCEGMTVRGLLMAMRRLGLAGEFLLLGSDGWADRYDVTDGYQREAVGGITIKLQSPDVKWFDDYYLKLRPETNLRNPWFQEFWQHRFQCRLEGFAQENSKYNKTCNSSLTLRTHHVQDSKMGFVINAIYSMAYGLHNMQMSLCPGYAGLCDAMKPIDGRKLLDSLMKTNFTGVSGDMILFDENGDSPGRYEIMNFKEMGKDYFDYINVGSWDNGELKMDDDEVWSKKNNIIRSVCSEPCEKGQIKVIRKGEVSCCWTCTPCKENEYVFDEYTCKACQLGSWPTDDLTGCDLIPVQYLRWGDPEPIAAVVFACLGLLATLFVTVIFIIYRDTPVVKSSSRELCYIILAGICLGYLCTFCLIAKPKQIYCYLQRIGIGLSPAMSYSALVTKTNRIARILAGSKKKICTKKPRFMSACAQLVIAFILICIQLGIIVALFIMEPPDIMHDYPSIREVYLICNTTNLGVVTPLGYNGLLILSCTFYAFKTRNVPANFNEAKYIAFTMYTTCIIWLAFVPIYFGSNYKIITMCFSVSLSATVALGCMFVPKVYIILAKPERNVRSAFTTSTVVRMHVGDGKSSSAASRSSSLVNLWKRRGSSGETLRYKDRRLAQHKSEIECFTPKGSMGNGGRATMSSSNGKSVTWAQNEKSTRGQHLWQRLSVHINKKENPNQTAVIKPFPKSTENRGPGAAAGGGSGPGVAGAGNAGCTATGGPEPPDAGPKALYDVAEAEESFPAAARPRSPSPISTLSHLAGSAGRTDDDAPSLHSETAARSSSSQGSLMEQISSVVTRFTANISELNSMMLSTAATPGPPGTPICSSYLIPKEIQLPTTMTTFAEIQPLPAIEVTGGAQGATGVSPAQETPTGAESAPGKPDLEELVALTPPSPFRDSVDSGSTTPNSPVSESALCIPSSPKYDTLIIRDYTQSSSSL
Procedure: as §1, with “for 5” for “for 10”

[1] = NAM potency, decrease of glutamate EC80 response, >30,000 = no measurable activity, >10,000 = no plateau

Row | SMILES | remaining activity at 30 µM (rat mGlu3) | IC50 (rat mGlu3) | Fold selectivity (mGlu3 vs. mGlu5) (rat mGlu5) | EC50 (rat mGlu5) | IC50 (rat mGlu3; [1]) | Emax at 30 µM (rat mGlu5)
1 | CC(C)c1ccc(NCc2cc3n(n2)CCN(c2ccc(F)cc2)C3=O)cc1 [Compound 23, 5-(4-fluorophenyl)-2-(((4-isopropylphenyl)amino)methyl)-6,7-dihydropyrazolo[1,5-a]pyrazin-4(5H)-one] | 28.9% | > 10000 nM | >3 | > 30000 nM |  | 
2 | CS(=O)(=O)c1ccc(NCc2cc3n(n2)CCN(c2ccc(F)cc2)C3=O)cc1 [Compound 25, 5-(4-fluorophenyl)-2-(((4-(methylsulfonyl)phenyl)amino)methyl)-6,7-dihydropyrazolo[1,5-a]pyrazin-4(5H)-one] | 66.9% | > 10000 nM | >3 | > 30000 nM |  | 
3 | O=C1c2cc(CNc3cccc(F)c3F)nn2CCN1c1ccc(F)cc1 [Compound 27, 2-(((2,3-difluorophenyl)amino)methyl)-5-(4-fluorophenyl)-6,7-dihydropyrazolo[1,5-a]pyrazin-4(5H)-one] | 2.82% |  | 4.06 | 2380 nM | 586 nM | 90.8%
4 | O=C1c2cc(CNc3ccc(F)cc3F)nn2CCN1c1ccc(F)cc1 [Compound 28, 2-(((2,4-difluorophenyl)amino)methyl)-5-(4-fluorophenyl)-6,7-dihydropyrazolo[1,5-a]pyrazin-4(5H)-one] | 1.76% |  | 1.21 | 1510 nM | 1250 nM | 80.6%
5 | O=C1c2cc(CNc3cc(F)ccc3F)nn2CCN1c1ccc(F)cc1 [Compound 29, 2-(((2,5-difluorophenyl)amino)methyl)-5-(4-fluorophenyl)-6,7-dihydropyrazolo[1,5-a]pyrazin-4(5H)-one] | 2.45% |  | 3.23 | 1640 nM | 508 nM | 87.5%
6 | O=C1c2cc(CNc3cc(F)cc(F)c3)nn2CCN1c1ccc(F)cc1 [Compound 30, 2-(((3,5-difluorophenyl)amino)methyl)-5-(4-fluorophenyl)-6,7-dihydropyrazolo[1,5-a]pyrazin-4(5H)-one] | 2.71% |  | 8.73 | 6440 nM | 738 nM | 102%
7 | O=C1c2cc(CNc3ccc(F)c(F)c3)nn2CCN1c1ccc(F)cc1 [Compound 31, 2-(((3,4-difluorophenyl)amino)methyl)-5-(4-fluorophenyl)-6,7-dihydropyrazolo[1,5-a]pyrazin-4(5H)-one] | 2.02% |  | 5.37 | 2480 nM | 462 nM | 75.8%
8 | O=C1c2cc(CNc3c(F)cccc3F)nn2CCN1c1ccc(F)cc1 [Compound 32, 2-(((2,6-difluorophenyl)amino)methyl)-5-(4-fluorophenyl)-6,7-dihydropyrazolo[1,5-a]pyrazin-4(5H)-one] | 1.25% |  | 8.41 | 8830 nM | 1050 nM | 84.1%
9 | O=C1c2cc(CNc3c(F)cc(F)cc3F)nn2CCN1c1ccc(F)cc1 [Compound 33, 5-(4-fluorophenyl)-2-(((2,4,6-trifluorophenyl)amino)methyl)-6,7-dihydropyrazolo[1,5-a]pyrazin-4(5H)-one] | 1.82% |  | 0.87 | 1110 nM | 1270 nM | 89.7%
10 | O=C1c2cc(CNc3ccc(Cl)cc3F)nn2CCN1c1ccc(F)cc1 [Compound 34, 2-(((4-chloro-2-fluorophenyl)amino)methyl)-5-(4-fluorophenyl)-6,7-dihydropyrazolo[1,5-a]pyrazin-4(5H)-one] | 3.18% |  | >35 | > 30000 nM | 856 nM | 
11 | Cc1ccc(NCc2cc3n(n2)CCN(c2ccc(F)cc2)C3=O)c(F)c1 [Compound 35, 2-(((2-fluoro-4-methylphenyl)amino)methyl)-5-(4-fluorophenyl)-6,7-dihydropyrazolo[1,5-a]pyrazin-4(5H)-one] | 1.68% |  | 5.97 | 4770 nM | 799 nM | 97.4%
12 | Cc1cc(NCc2cc3n(n2)CCN(c2ccc(F)cc2)C3=O)ccc1F [Compound 36, 2-(((4-fluoro-3-methylphenyl)amino)methyl)-5-(4-fluorophenyl)-6,7-dihydropyrazolo[1,5-a]pyrazin-4(5H)-one] | 1.91% |  | >17 | > 30000 nM | 1670 nM | 
13 | O=C1c2cc(CNc3ccc(OC(F)F)cc3F)nn2CCN1c1ccc(F)cc1 [Compound 37, 2-(((4-(difluoromethoxy)-2-fluorophenyl)amino)methyl)-5-(4-fluorophenyl)-6,7-dihydropyrazolo[1,5-a]pyrazin-4(5H)-one] | 2.57% | 334 nM | >29 | > 10000 nM |  | 38.4%
14 | O=C1c2cc(CNc3ccc(OC(F)F)c(F)c3)nn2CCN1c1ccc(F)cc1 [Compound 38, 2-(((4-(difluoromethoxy)-3-fluorophenyl)amino)methyl)-5-(4-fluorophenyl)-6,7-dihydropyrazolo[1,5-a]pyrazin-4(5H)-one] | 2.28% |  | 3.19 | 1560 nM | 489 nM | 84.7%
15 | O=C1c2cc(CNc3ccc4c(c3)OC(F)(F)O4)nn2CCN1c1ccc(F)cc1 [Compound 39, 2-(((2,2-difluorobenzo[d][1,3]dioxol-5-yl)amino)methyl)-5-(4-fluorophenyl)-6,7-dihydropyrazolo[1,5-a]pyrazin-4(5H)-one] | 1.95% |  | >3.4 | > 10000 nM | 2880 nM | 75.7%
16 | C[C@@H]1CN(c2ccc(F)cc2)C(=O)c2cc(CNc3ccccc3)nn21 [Compound 40, (R)-5-(4-fluorophenyl)-7-methyl-2-((phenylamino)methyl)-6,7-dihydropyrazolo[1,5-a]pyrazin-4(5H)-one] | 5.15% |  | 3.49 | 4810 nM | 1380 nM | 34.4%
17 | C[C@H]1CN(c2ccc(F)cc2)C(=O)c2cc(CNc3ccccc3)nn21 [Compound 41, (S)-5-(4-fluorophenyl)-7-methyl-2-((phenylamino)methyl)-6,7-dihydropyrazolo[1,5-a]pyrazin-4(5H)-one] | -2.27% |  | 0.17 | 1360 nM | 8110 nM | 81.7%
18 | C[C@@H]1CN(c2ccc(F)cc2)C(=O)c2cc(CNc3ccccc3F)nn21 [Compound 42, (R)-5-(4-fluorophenyl)-2-(((2-fluorophenyl)amino)methyl)-7-methyl-6,7-dihydropyrazolo[1,5-a]pyrazin-4(5H)-one] | 0.89% |  | >11 | > 10000 nM | 871 nM | 71.4%
19 | C[C@H]1CN(c2ccc(F)cc2)C(=O)c2cc(CNc3ccccc3F)nn21 [Compound 43, (S)-5-(4-fluorophenyl)-2-(((2-fluorophenyl)amino)methyl)-7-methyl-6,7-dihydropyrazolo[1,5-a]pyrazin-4(5H)-one] | 1.61% |  | 2.06 | 5230 nM | 2540 nM | 90.6%
20 | Cc1ccccc1NCc1cc2n(n1)[C@H](C)CN(c1ccc(F)cc1)C2=O [Compound 44, (R)-5-(4-fluorophenyl)-7-methyl-2-((o-tolylamino)methyl)-6,7-dihydropyrazolo[1,5-a]pyrazin-4(5H)-one] | -0.26% |  | >3.7 | > 10000 nM | 2670 nM | 23.9%
